According to patent publication US11401254B2, “Substituted thiophenecarboxamides and analogues as antibacterials agents” (Bayer Aktiengesellschaft, priority 2018, dated 2022):

Assays:
[1] = test system: Xanthomonas campestris pv. campestris; test: In vivo preventive test on Xanthomonas campestris pv. campestris (black rot on cabbage); settings: Example C comparative table; same conditions as described in Example B; concentration not given
Procedure: Example B: In Vivo Preventive Test on Xanthomonas campestris pv. Campestris (Black Rot on Cabbage)
The tested compounds were prepared by homogenization in a mixture of acetone/Dimethyl sulfoxide/Tween®, and then diluted with water to obtain the desired concentration.
The young plants of cabbage were treated by spraying the compound prepared as described above. Control plants were treated only with an aqueous solution of acetone/Dimethyl sulfoxide/Tween®.
After 72 hours, the plants were contaminated by spraying the leaves with an aqueous bacteria suspension of Xanthomonas campestris pv. campestris. The contaminated cabbage plants were incubated for 8 or 10 days at 27° C. at 95% relative humidity.
The test was evaluated 8 or 10 days after the inoculation. 0% means an efficacy which corresponds to that of the control plants while an efficacy of 100% means that no disease was observed.
Compounds CMP3, CMP4, CMP5 and CMP6 were tested in an in vivo preventive test on Xanthomonas campestris pv. campestris (black rot on cabbage) in the same conditions as described in Example B.

[2] = test system: Xanthomonas campestris pv. campestris; test: Xanthomonas campestris pv. campestris in vitro cell test (bacteria growth in liquid culture); assay type: cell-based; settings: 20 ppm of tested compound; 24 h of incubation
Procedure: Example A: Xanthomonas Campestris pv. Campestris In Vitro Cell Test
Culture medium: LB broth medium (Luria Broth Miller) Sigma
Inoculum: bacteria suspension
Compounds to be tested were solubilized in DMSO and the solution used to prepare the required range of concentrations. The final concentration of DMSO used in the assay was ≤1%.
Inoculum was prepared from a pre-culture of bacteria grown in liquid medium and diluted to the desired optical density (OD).
Compounds were evaluated for their ability to inhibit bacteria growth in liquid culture assay. The compounds were added in the desired concentrations to culture medium containing the bacteria suspension. After 24 h of incubation, the efficacy of compounds was determined by spectrometric measurement of bacteria growth. Inhibition was determined by comparing the absorbance values in wells containing the compounds with the absorbance in control wells without compounds.

[3] = Log P by HPLC on reversed phase columns (EEC directive 79/831 Annex V.A8); assay type: physicochemical; settings: for chromatographic logP: reversed phase HPLC columns
Procedure: In the above tables, measurement of Log P values was performed according to EEC directive 79/831 Annex V.A8 by HPLC (High Performance Liquid Chromatography) on reversed phase columns with the following methods: • ^[a]
If more than one Log P value is available within the same method, all the values are given and separated by “+”.
Calibration was done with straight-chain alkan2-ones (with 3 to 16 carbon atoms) with known Log P values (measurement of Log P values using retention times with linear interpolation between successive alkanones). Lambda-max-values were determined using UV-spectra from 200 nm to 400 nm and the peak values of the chromatographic signals.

[4] = method [a]: LC-UV, acidic range, 0.1% formic acid in water and acetonitrile as eluent

| SMILES | chromatographic logP [3, 4] | chromatographic logP ([3]; value given in preparation example, method variant not stated) | LogP [3, 4] | Efficacy (%) [1] | direct activity (inhibition of bacteria growth) [2] |
| --- | --- | --- | --- | --- | --- |
| CCOC(=O)C(NC(=O)c1sc(Br)c(Br)c1Br)C(C)C (stereo not drawn) [CMP3, reference compound] |  |  |  | 33% |  |
| CCOC(=O)CNC(=O)c1sc(Br)c(Br)c1Br [CMP4, reference compound] |  |  |  | 0% |  |
| CC(C)CC(NC(=O)c1cc(Br)c(Br)s1)C(=O)O (stereo not drawn) [CMP6, reference compound] |  |  |  | 15% |  |
| Cc1c(C(=O)NC(C(=O)OCC(C)C)C(C)C)sc(Br)c1Br (stereo not drawn) [I.14] |  |  | 5.22^[a] |  | no direct activity |
| Cc1c(C(=O)NC(C(=O)OC2CSC2)C(C)C)sc(Br)c1Br (stereo not drawn) [I.17] |  |  | 4.67^[a] |  | no direct activity |
| CCOC(=O)[C@H](Cc1ccccc1)NC(=O)c1sc(Cl)c(Cl)c1C [I.26] |  |  | 4.46^[a] |  | no direct activity |
| Cc1c(C(=O)NCC(=O)OC(C)(C)C)sc(Cl)c1Cl [I.28] |  |  | 3.77^[a] |  | no direct activity |
| COC(=O)[C@H](CCSC)NC(=O)c1sc(Cl)c(Cl)c1C [I.30] |  |  | 3.55^[a] |  | no direct activity |
| COC(=O)CNC(=O)c1sc(Cl)c(Cl)c1C [I.31] |  |  | 2.51^[a] |  | no direct activity |
| Cc1c(C(=O)NCC(=O)OCc2ccccc2)sc(Cl)c1Cl [I.34] |  |  | 3.76^[a] |  | no direct activity |
| COC(=O)C(CCSC)NC(=O)c1sc(Cl)c(Cl)c1C (stereo not drawn) [I.35] |  |  | 3.55^[a] |  | no direct activity |
| CCOC(=O)C(Cc1ccccc1)NC(=O)c1sc(Cl)c(Cl)c1C (stereo not drawn) [I.38] |  |  | 4.46^[a] |  | no direct activity |
| CCOC(=O)C(Cc1ccc(O)cc1)NC(=O)c1sc(Cl)c(Cl)c1C (stereo not drawn) [I.39] |  |  | 3.29^[a] |  | no direct activity |
| CCOC(=O)[C@@H](C)NC(=O)c1sc(Cl)c(Cl)c1C [I.42] |  |  | 3.31^[a] |  | no direct activity |
| CCOC(=O)C1(NC(=O)c2sc(Cl)c(Cl)c2C)CC1 [I.43] |  |  | 3.08^[a] |  | no direct activity |
| CCOC(=O)[C@@H](Cc1ccccc1)NC(=O)c1sc(Cl)c(Cl)c1C [I.45] |  |  | 4.46^[a] |  | no direct activity |
| CCCOC(=O)CNC(=O)c1sc(Cl)c(Cl)c1C [I.48] |  |  | 3.35^[a] |  | no direct activity |
| Cc1c(C(=O)NC2(C(=O)O)CC2)sc(Cl)c1Cl [I.51] |  |  | 2.26^[a] |  | no direct activity |
| Cc1c(C(=O)NC(CC(C)C)C(=O)O)sc(Br)c1Br (stereo not drawn) [I.90] |  |  |  | >70% |  |

Continued, in another order:

| chromatographic logP [3, 4] | chromatographic logP ([3]; value given in preparation example, method variant not stated) | LogP [3, 4] | SMILES | Efficacy (%) [1] | direct activity (inhibition of bacteria growth) [2] |
| --- | --- | --- | --- | --- | --- |
| 4.32 | 4.32 |  | CCOC(=O)[C@@H](NC(=O)c1sc(Br)c(Br)c1C)C(C)C (racemic) [I.04, ethyl N-[(4,5-dibromo-3-methyl-2-thienyl)carbonyl]-valinate] | >90% | no direct activity |
|  |  | 3.02^[a] | CCOC(=O)CNC(=O)c1sc(Br)c(Br)c1C [I.02] | >80% | no direct activity |
|  |  | 3.69^[a] | Cc1c(C(=O)NC(C(=O)OCC#N)C(C)C)sc(Br)c1Br (stereo not drawn) [I.15] |  | no direct activity |
|  |  | 3.42^[a] | Cc1c(C(=O)NC(C(=O)OC2CS(=O)(=O)C2)C(C)C)sc(Br)c1Br (stereo not drawn) [I.18] |  | no direct activity |
|  |  | 3.78^[a] | Cc1c(C(=O)NC(C(=O)OC2CCOC2)C(C)C)sc(Br)c1Br (stereo not drawn) [I.19] |  | no direct activity |
|  |  | 5.78^[a] | Cc1c(C(=O)NC(C(=O)OC[Si](C)(C)C)C(C)C)sc(Br)c1Br (stereo not drawn) [I.20] |  | no direct activity |
|  |  | 3.39^[a] | CCOC(=O)C(C)NC(=O)c1sc(Br)c(Br)c1C (stereo not drawn) [I.21] |  | no direct activity |
|  |  | 3.33^[a] | CCOC(=O)C(Cc1ccc(O)cc1)NC(=O)c1sc(Br)c(Br)c1C (stereo not drawn) [I.23] |  | no direct activity |
|  |  | 3.94^[a] | CCOC(=O)[C@H](CCSC)NC(=O)c1sc(Cl)c(Cl)c1C [I.24] |  | no direct activity |
|  |  | 3.31^[a] | CCOC(=O)C(C)NC(=O)c1sc(Cl)c(Cl)c1C (stereo not drawn) [I.27] |  | no direct activity |
|  |  | 3.79^[a] | COC(=O)[C@@H](NC(=O)c1sc(Cl)c(Cl)c1C)C(C)C [I.29] |  | no direct activity |
|  |  | 4.54^[a] | CCOC(=O)[C@H](CC(C)C)NC(=O)c1sc(Cl)c(Cl)c1C [I.33] |  | no direct activity |
|  |  | 3.55^[a] | COC(=O)[C@@H](CCSC)NC(=O)c1sc(Cl)c(Cl)c1C [I.36] |  | no direct activity |
|  |  | 4.51^[a] | CCOC(=O)C(CC(C)C)NC(=O)c1sc(Cl)c(Cl)c1C (stereo not drawn) [I.37] |  | no direct activity |
|  |  | 3.29^[a] | Cc1c(C(=O)NCC(=O)OC(C)C)sc(Cl)c1Cl [I.41] |  | no direct activity |
|  |  | 3.79^[a] | COC(=O)C(NC(=O)c1sc(Cl)c(Cl)c1C)C(C)C (stereo not drawn) [I.46] |  | no direct activity |
|  |  | 3.94^[a] | CCOC(=O)C(CCSC)NC(=O)c1sc(Cl)c(Cl)c1C (stereo not drawn) [I.47] |  | no direct activity |
|  |  | 4.77^[a] | Cc1c(C(=O)NC(C(=O)OC(C)C)C(C)C)sc(Br)c1Br (stereo not drawn) [I.49] |  | no direct activity |
|  |  | 4.98^[a] | Cc1c(C(=O)NC(C(=O)OC2CCC2)C(C)C)sc(Br)c1Br (stereo not drawn) [I.53] |  | no direct activity |
|  |  | 4.77^[a] | CCCOC(=O)C(NC(=O)c1sc(Br)c(Br)c1C)C(C)C (stereo not drawn) [I.54] |  | no direct activity |
|  |  | 5.25^[a] | CCCCOC(=O)C(NC(=O)c1sc(Br)c(Br)c1C)C(C)C (stereo not drawn) [I.55] |  | no direct activity |
|  |  | 4.37^[a] | Cc1c(C(=O)NC(C(=O)OC2CC2)C(C)C)sc(Br)c1Br (stereo not drawn) [I.56] |  | no direct activity |
|  |  | 5.03^[a] | Cc1c(C(=O)NC(C(=O)OCc2ccccc2)C(C)C)sc(Br)c1Br (stereo not drawn) [I.57] |  | no direct activity |
|  |  | 4.46^[a] | C=CCOC(=O)C(NC(=O)c1sc(Br)c(Br)c1C)C(C)C (stereo not drawn) [I.58] |  | no direct activity |
|  |  | 4.51^[a] | Cc1c(C(=O)NC(C(=O)OCC(F)(F)F)C(C)C)sc(Br)c1Br (stereo not drawn) [I.59] |  | no direct activity |
|  |  | 4.85^[a] | Cc1c(C(=O)NC(C(=O)Oc2ccccc2)C(C)C)sc(Br)c1Br (stereo not drawn) [I.60] |  | no direct activity |
|  |  | 5.25^[a] | Cc1c(C(=O)NC(C(=O)OC(C)(C)C)C(C)C)sc(Br)c1Br (stereo not drawn) [I.61] |  | no direct activity |
|  |  | 2.39^[a] | Cc1c(C(=O)NC(C)C(=O)O)sc(Br)c1Br (stereo not drawn) [I.79] | >70% |  |
